The values that follow come from US11883680B2, “Method and apparatus for tightening skin and other tissues” (The General Hospital Corporation, priority 2016, dated 2024).

For the experiment, the system named is human skin. Nature of the experiment: mechanical testing of skin sample sites with a tensiometer (elastic modulus, peak load). Conditions: fully treated (full thickness needling + 0.1% Rose Bengal in saline + green light LED array) vs untreated and needled-only skin. The protocol:
Additionally, mechanical testing was performed on sample sites using a tensiometer to measure elastic modulus before and after treatment. The elastic modulus and peak load were recorded on samples that were (1) untreated (2) partially treated (needled only), and (3) fully treated (needled plus agent application and irradiation). Full treatment included full thickness needling of the skin surface followed by application of a 0.1% solution of Rose Bengal in saline and irradiation with a multi-light-emitting LED diode array that delivered green light to the sample surface.

On to `O=C([O-])c1c(Cl)c(Cl)c(Cl)c(Cl)c1-c1c2cc(I)c(=O)c(I)c-2oc2c(I)c([O-])c(I)cc12.[Na+].[Na+]` [Rose Bengal], for which the “increase in peak load” value is listed as “three-fold” and the “increase in the elastic modulus” value is recorded as “five-fold”.
